US20200016174A1, “PHARMACEUTICAL COMPOSITION” (MEXICHEM FLUOR S.A. DE C.V., priority 2016, published 2020)
Where a name gives a salt, the structure may show the parent alone.

Key:
Assay type in all cases: physicochemical
[1] = In vitro aerosolization performance (Next Generation Impactor) of beclomethasone dipropionate / formoterol fumarate dihydrate combination MDI formulations; details: after 1 month at ambient conditions, NGI 30 L/min
[2] = In vitro aerosolization performance (Next Generation Impactor) of beclomethasone dipropionate MDI formulations in HFA-152a with varying ethanol and glycerol; details: immediately after preparation
Procedure: A number of experiments were conducted to investigate the effects of glycerol on the in vitro aerosolization performance of drug formulations of beclomethasone dipropionate delivered from a metered dose inhaler (MDI) using HFA-152a as the propellant.
Pharmaceutical formulations of beclomethasone dipropionate were prepared in HFA-152a (Mexichem, UK). […] Anhydrous ethanol in an amount of 5, 10 or 15 weight % based on the total weight of the formulation and glycerol in an amount of 0, 1 or 2 weight %, again based on the total weight of the formulation, were then added to the canisters. […] The nominal dose of beclomethasone dipropionate was […].

[3] = Chemical stability (total impurities) of beclomethasone dipropionate formulations with varying ethanol and glycerol in uncoated aluminium cans; details: for % Total Imps T = 0 / % Total Imps T = 1 M @ 40° C./75% RH / % Total Imps T = 3 M @ 40° C./75% RH: uncoated aluminium cans
Procedure: A number of experiments were conducted to investigate the stability of beclomethasone dipropionate in HFA-134a and HFA-152a.
Anhydrous ethanol in an amount of 5, 10 or 15 weight % based on the total weight of the formulation and glycerol in an amount of 0, 1 or 2 weight %, again based on the total weight of the formulation, were then added to the canisters. […] The nominal dose of beclomethasone dipropionate was […].

[4] = combination formulation in HFA-134a and 10 weight % ethanol
[5] = combination formulation in HFA-152a and 10 weight % ethanol
[6] = 5 wt. % ethanol, 0 wt. % glycerol
[7] = 5 wt. % ethanol, 1 wt. % glycerol
[8] = 5 wt. % ethanol, 2 wt. % glycerol
[9] = 10 wt. % ethanol, 0 wt. % glycerol
[10] = 10 wt. % ethanol, 1 wt. % glycerol
[11] = 10 wt. % ethanol, 2 wt. % glycerol
[12] = 15 wt. % ethanol, 0 wt. % glycerol
[13] = 15 wt. % ethanol, 1 wt. % glycerol
[14] = 15 wt. % ethanol, 2 wt. % glycerol
[15] = HFA-134a, 5 wt. % ethanol, 0 wt. % glycerol
[16] = HFA-134a, 5 wt. % ethanol, 1 wt. % glycerol
[17] = HFA-134a, 5 wt. % ethanol, 2 wt. % glycerol
[18] = HFA-134a, 10 wt. % ethanol, 0 wt. % glycerol
[19] = HFA-134a, 10 wt. % ethanol, 1 wt. % glycerol
[20] = HFA-134a, 10 wt. % ethanol, 2 wt. % glycerol
[21] = HFA-134a, 15 wt. % ethanol, 0 wt. % glycerol
[22] = HFA-134a, 15 wt. % ethanol, 1 wt. % glycerol
[23] = HFA-134a, 15 wt. % ethanol, 2 wt. % glycerol
[24] = HFA-152a, 5 wt. % ethanol, 0 wt. % glycerol
[25] = HFA-152a, 5 wt. % ethanol, 1 wt. % glycerol
[26] = HFA-152a, 5 wt. % ethanol, 2 wt. % glycerol
[27] = HFA-152a, 10 wt. % ethanol, 0 wt. % glycerol
[28] = HFA-152a, 10 wt. % ethanol, 1 wt. % glycerol
[29] = HFA-152a, 10 wt. % ethanol, 2 wt. % glycerol
[30] = HFA-152a, 15 wt. % ethanol, 0 wt. % glycerol
[31] = HFA-152a, 15 wt. % ethanol, 1 wt. % glycerol
[32] = HFA-152a, 15 wt. % ethanol, 2 wt. % glycerol

With `COc1ccc(CC(C)NCC(O)c2ccc(O)c(NC=O)c2)cc1` (stereo not shown) [formoterol fumarate dihydrate] the FPFED % [1, 4] was 66.35%, the “Fine Particle Dose” value [1, 4] was 3.67 µg and the “MMAD ± GSD” value [1, 4] was 1.36 ± 2.00 μm. The FPFED % [1, 5] was 60.01%, the “Fine Particle Dose” value [1, 5] was 3.57 µg and the “MMAD ± GSD” value [1, 5] was 1.51 ± 2.08 μm.

With `CCC(=O)OCC(=O)[C@@]1(OC(=O)CC)[C@@H](C)C[C@H]2[C@@H]3CCC4=CC(=O)C=C[C@]4(C)[C@@]3(Cl)[C@@H](O)C[C@@]21C` [beclomethasone dipropionate] the FPFED % [1, 4] was 63.16%, the “Fine Particle Dose” value [1, 4] was 98.92 µg and the “MMAD ± GSD” value [1, 4] was 1.41 ± 1.95 μm. The FPFED % [1, 5] was 55.67%, the “Fine Particle Dose” value [1, 5] was 105.11 µg and the “MMAD ± GSD” value [1, 5] was 1.57 ± 1.98 μm. For the same compound, the FPFED [2, 6] was 65.17%, the FPM [2, 6] was 114.36 µg and the “MMAD (μm) ± GSD” value [2, 6] was 1.27 ± 1.80 μm. For the same compound, the FPFED [2, 7] was 67.97%, the FPM [2, 7] was 123.94 µg and the “MMAD (μm) ± GSD” value [2, 7] was 1.55 ± 1.93 μm. The FPFED [2, 8] was 65.69%, the FPM [2, 8] was 120.25 µg and the “MMAD (μm) ± GSD” value [2, 8] was 1.62 ± 2.06 μm. For the same compound, the FPFED [2, 9] was 59.47%, the FPM [2, 9] was 117.15 µg and the “MMAD (μm) ± GSD” value [2, 9] was 1.33 ± 1.84 μm. The FPFED [2, 10] was 58.64%, the FPM [2, 10] was 116.83 µg and the “MMAD (μm) ± GSD” value [2, 10] was 2.09 ± 1.92 μm. The FPFED [2, 11] was 55.76%, the FPM [2, 11] was 104.23 µg and the “MMAD (μm) ± GSD” value [2, 11] was 2.19 ± 2.12 μm. For the same compound, the FPFED [2, 12] was 50.99%, the FPM [2, 12] was 102.86 µg and the “MMAD (μm) ± GSD” value [2, 12] was 1.42 ± 2.02 μm. For the same compound, the FPFED [2, 13] was 48.85%, the FPM [2, 13] was 96.11 µg and the “MMAD (μm) ± GSD” value [2, 13] was 2.29 ± 2.06 μm. The FPFED [2, 14] was 43.57%, the FPM [2, 14] was 83.04 µg and the “MMAD (μm) ± GSD” value [2, 14] was 2.59 ± 2.12 μm. The “% Total Imps T = 0” value [3, 15] was 0.89%, the “% Total Imps T = 1 M @ 40° C./75% RH” value [3, 15] was 1.58% and the “% Total Imps T = 3 M @ 40° C./75% RH” value [3, 15] was 2.08%. The “% Total Imps T = 0” value [3, 16] was 0.34%, the “% Total Imps T = 1 M @ 40° C./75% RH” value [3, 16] was 1.91% and the “% Total Imps T = 3 M @ 40° C./75% RH” value [3, 16] was 2.14%. The “% Total Imps T = 0” value [3, 17] was 0.55%, the “% Total Imps T = 1 M @ 40° C./75% RH” value [3, 17] was 0.78% and the “% Total Imps T = 3 M @ 40° C./75% RH” value [3, 17] was 1.18%. The “% Total Imps T = 0” value [3, 18] was 1.16%, the “% Total Imps T = 1 M @ 40° C./75% RH” value [3, 18] was 1.82% and the “% Total Imps T = 3 M @ 40° C./75% RH” value [3, 18] was 2.21%. For the same compound, the “% Total Imps T = 0” value [3, 19] was 1.34%, the “% Total Imps T = 1 M @ 40° C./75% RH” value [3, 19] was 2.25% and the “% Total Imps T = 3 M @ 40° C./75% RH” value [3, 19] was 2.49%. For the same compound, the “% Total Imps T = 0” value [3, 20] was 1.49%, the “% Total Imps T = 1 M @ 40° C./75% RH” value [3, 20] was 1.97% and the “% Total Imps T = 3 M @ 40° C./75% RH” value [3, 20] was 2.35%. For the same compound, the “% Total Imps T = 0” value [3, 21] was 1.08%, the “% Total Imps T = 1 M @ 40° C./75% RH” value [3, 21] was 2.35% and the “% Total Imps T = 3 M @ 40° C./75% RH” value [3, 21] was 4.21%. The “% Total Imps T = 0” value [3, 22] was 2.88%, the “% Total Imps T = 1 M @ 40° C./75% RH” value [3, 22] was 3.15% and the “% Total Imps T = 3 M @ 40° C./75% RH” value [3, 22] was 3.99%. For the same compound, the “% Total Imps T = 0” value [3, 23] was 2.95%, the “% Total Imps T = 1 M @ 40° C./75% RH” value [3, 23] was 4.22% and the “% Total Imps T = 3 M @ 40° C./75% RH” value [3, 23] was 4.89%. For the same compound, the “% Total Imps T = 0” value [3, 24] was 0.08%, the “% Total Imps T = 1 M @ 40° C./75% RH” value [3, 24] was 0.16% and the “% Total Imps T = 3 M @ 40° C./75% RH” value [3, 24] was 0.35%. The “% Total Imps T = 0” value [3, 25] was 0.11%, the “% Total Imps T = 1 M @ 40° C./75% RH” value [3, 25] was 0.15% and the “% Total Imps T = 3 M @ 40° C./75% RH” value [3, 25] was 0.28%. For the same compound, the “% Total Imps T = 0” value [3, 26] was 0.09%, the “% Total Imps T = 1 M @ 40° C./75% RH” value [3, 26] was 0.21% and the “% Total Imps T = 3 M @ 40° C./75% RH” value [3, 26] was 0.34%. For the same compound, the “% Total Imps T = 0” value [3, 27] was 0.21%, the “% Total Imps T = 1 M @ 40° C./75% RH” value [3, 27] was 0.35% and the “% Total Imps T = 3 M @ 40° C./75% RH” value [3, 27] was 0.42%. The “% Total Imps T = 0” value [3, 28] was 0.34%, the “% Total Imps T = 1 M @ 40° C./75% RH” value [3, 28] was 0.36% and the “% Total Imps T = 3 M @ 40° C./75% RH” value [3, 28] was 0.55%. For the same compound, the “% Total Imps T = 0” value [3, 29] was 0.23%, the “% Total Imps T = 1 M @ 40° C./75% RH” value [3, 29] was 0.29% and the “% Total Imps T = 3 M @ 40° C./75% RH” value [3, 29] was 0.31%. For the same compound, the “% Total Imps T = 0” value [3, 30] was 0.56%, the “% Total Imps T = 1 M @ 40° C./75% RH” value [3, 30] was 0.89% and the “% Total Imps T = 3 M @ 40° C./75% RH” value [3, 30] was 1.11%. For the same compound, the “% Total Imps T = 0” value [3, 31] was 0.66%, the “% Total Imps T = 1 M @ 40° C./75% RH” value [3, 31] was 0.79% and the “% Total Imps T = 3 M @ 40° C./75% RH” value [3, 31] was 1.56%. For the same compound, the “% Total Imps T = 0” value [3, 32] was 0.72%, the “% Total Imps T = 1 M @ 40° C./75% RH” value [3, 32] was 0.89% and the “% Total Imps T = 3 M @ 40° C./75% RH” value [3, 32] was 1.48%. For the same compound, the “stability with HFA-152a as propellant rather than HFA-134a” value ([3]; all investigated levels of ethanol and glycerol, comparison of Tables 10 and 11) was “significantly higher”.
